Our source for the IC50 cell viability values is the supplement of paper PMC12137928.

In the assay the test system is HCT116. To be noted: 72 h. The method, boiled down: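 HCT116 cells went into 1536-well plates at 250 per well. CellTiter-Glo luminescence was expressed relative to vehicle (0%) and positive control (-100%) and then pattern-corrected. Both IC50 and maximal efficacy were taken from four-parameter Hill fits.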

Molecules are shown by their SMILES. Counter-ions that a name gives are not always drawn.

Turning to `CCN1CCC(=C2c3ccccc3CCc3ccccc32)C1C` (centres undefined) [Piroheptine Hydrochloride], the IC50 cell viability was above 45.8 µM (ICRF193 0 nM) and above 45.8 µM (ICRF193 200 nM).
`C=CC[C@]1(O)CC[C@H]2[C@@H]3CCC4=CC(=O)CCC4=C3C=C[C@@]21C` [Altrenogest] yielded an IC50 cell viability (ICRF193 0 nM) above 45.8 µM and an IC50 cell viability (ICRF193 200 nM) above 45.8 µM.
Turning to `CN1CCN2c3ncccc3Cc3ccccc3C2C1` (centres undefined) [Mirtazapine], the IC50 cell viability is above 45.8 µM (ICRF193 0 nM) and above 45.8 µM (ICRF193 200 nM).
For the molecule `COc1cc2/c(=N/c3ccc(Br)cc3F)nc[nH]c2cc1OCC1CCN(C)CC1` [Vandetanib], the IC50 cell viability reads like this: (ICRF193 0 nM) above 45.8 µM; (ICRF193 200 nM) above 45.8 µM.
Regarding `CN(CCCCCCN(C)C(=O)Oc1ccc[n+](C)c1)C(=O)Oc1ccc[n+](C)c1` [Distigmine Bromide], the IC50 cell viability (ICRF193 0 nM) was above 45.8 µM and the IC50 cell viability (ICRF193 200 nM) was above 45.8 µM.
As for `C[N+]1(C)[C@@H]2C[C@@H](OC(=O)C(O)(c3cccs3)c3cccs3)C[C@H]1[C@@H]1O[C@@H]12` [Tiotropium (Bromide)], the IC50 cell viability reads like this: (ICRF193 0 nM) above 45.8 µM; (ICRF193 200 nM) above 45.8 µM.
`CNC(=O)c1cnn(-c2nc(N)c3ncn([C@@H]4O[C@H](CO)[C@@H](O)[C@H]4O)c3n2)c1` [Lexiscan] yielded an IC50 cell viability (ICRF193 0 nM) above 45.8 µM and an IC50 cell viability (ICRF193 200 nM) above 45.8 µM.
In the case of `CO[C@@H]1[C@@H](O[C@@H]2O[C@H](C)[C@@H](O[C@H]3C[C@@](C)(O)[C@@H](O)[C@H](C)O3)[C@H](N(C)C)[C@H]2O)[C@@H](CC=O)C[C@@H](C)[C@@H](O[C@H]2CC[C@H](N(C)C)[C@@H](C)O2)/C=C/C=C/C[C@@H](C)OC(=O)C[C@H]1OC(C)=O` [Spiramycin II], the IC50 cell viability (ICRF193 0 nM) is above 45.8 µM and the IC50 cell viability (ICRF193 200 nM) was above 45.8 µM.
Take `C[C@]12CC[C@H]3[C@@H](CCC4=CC(=O)CC[C@@]43C)[C@@H]1CC[C@@H]2OC(=O)CCc1ccccc1` [Testosterone 17-phenylpropionate]: the IC50 cell viability runs as follows: (ICRF193 0 nM) above 45.8 µM; (ICRF193 200 nM) above 45.8 µM.
`CCCc1ccc(OCC(=O)N2CCN(C(=O)COc3ccc(CCC)cc3OC)CC2)c(OC)c1` [Simetride]: the IC50 cell viability (ICRF193 0 nM) was above 45.8 µM and the IC50 cell viability (ICRF193 200 nM) is above 45.8 µM.
Regarding `NC(=O)[C@@H]1CC[C@@H]2CN1C(=O)N2OS(=O)(=O)O` [Avibactam sodium], the IC50 cell viability (ICRF193 0 nM) is above 45.8 µM and the IC50 cell viability (ICRF193 200 nM) was above 45.8 µM.
In turn, `O=C(Nc1cccc2c(=O)cc(-c3nnn[nH]3)oc12)c1ccc(OCCCCc2ccccc2)cc1` [Pranlukast hydrate] came in with an IC50 cell viability (ICRF193 0 nM) above 45.8 µM and an IC50 cell viability (ICRF193 200 nM) above 45.8 µM.
On to `COC(=O)C1=C(C)NC(C)=C(C(=O)OC(C)C)C1c1cccc2nonc12` (centres undefined) [Isradipine], for which the IC50 cell viability (ICRF193 0 nM) was above 45.8 µM and the IC50 cell viability (ICRF193 200 nM) was above 45.8 µM.
Consider `CCCC(=O)O[C@]1(C(=O)COC(=O)CC)[C@@H](C)C[C@H]2[C@@H]3CCC4=CC(=O)C=C[C@]4(C)[C@@]3(F)[C@@H](O)C[C@@]21C` [Betamethasone butyrate propionate], for which the IC50 cell viability by setting is: (ICRF193 0 nM) above 45.8 µM; (ICRF193 200 nM) above 45.8 µM.
Consider `CCC(=O)NS(=O)(=O)c1ccc(-c2c(-c3ccccc3)noc2C)cc1` [Parecoxib], for which the IC50 cell viability reads like this: (ICRF193 0 nM) above 45.8 µM; (ICRF193 200 nM) above 45.8 µM.
Take `O=P(O)(O)O[C@H]1[C@H](OP(=O)(O)O)[C@@H](OP(=O)(O)O)[C@H](OP(=O)(O)O)[C@@H](OP(=O)(O)O)[C@H]1OP(=O)(O)O` [Phytic acid]: the IC50 cell viability reads like this: (ICRF193 0 nM) above 45.8 µM; (ICRF193 200 nM) above 45.8 µM.
As for `CN[C@H]1C(=O)N[C@@H]2Cc3ccc(cc3)Oc3cc4cc(c3O[C@@H]3O[C@H](C(=O)O)[C@@H](O)[C@H](O)[C@H]3NC(=O)CCCCCCCCC(C)C)Oc3ccc(cc3Cl)[C@@H](O)[C@@H]3NC(=O)[C@H](NC(=O)[C@@H]4NC(=O)[C@@H](NC2=O)c2cc(cc(O)c2Cl)Oc2cc1ccc2O)c1ccc(O)c(c1)-c1c(O[C@H]2O[C@H](CO)[C@@H](O)[C@H](O)[C@@H]2O)cc(O)cc1[C@@H](C(=O)NCCCN(C)C)NC3=O` [Dalbavancin], the IC50 cell viability (ICRF193 0 nM) is above 45.8 µM and the IC50 cell viability (ICRF193 200 nM) is above 45.8 µM.
`CC=CC1=C(C(=O)O)N2C(=O)[C@@H](NC(=O)[C@H](N)c3ccc(O)cc3)[C@H]2SC1` [Cefprozil]: the IC50 cell viability was above 45.8 µM (ICRF193 0 nM) and above 45.8 µM (ICRF193 200 nM).
Consider `Oc1ccc(Cl)cc1` [4-Chlorophenol], for which the IC50 cell viability is above 45.8 µM (ICRF193 0 nM) and above 45.8 µM (ICRF193 200 nM).
Turning to `CO/N=C(\C(=O)N[C@@H]1C(=O)N2C(C(=O)O)=C(CSc3cnns3)CS[C@H]12)c1csc(N)n1` [Cefuzonam hydrochloride], the IC50 cell viability is, setting by setting: (ICRF193 0 nM) above 45.8 µM; (ICRF193 200 nM) above 45.8 µM.
As for `COc1cc2c(cc1OC)CC(=O)N(CCCN(C)C[C@H]1Cc3cc(OC)c(OC)cc31)CC2` [Ivabradine hydrochloride], the IC50 cell viability (ICRF193 0 nM) is above 45.8 µM and the IC50 cell viability (ICRF193 200 nM) is above 45.8 µM.
`COc1cc2c(cc1OC)C1CC(=O)C(CC(C)C)CN1CC2` (centres undefined) [Tetrabenazine] gave an IC50 cell viability (ICRF193 0 nM) above 45.8 µM and an IC50 cell viability (ICRF193 200 nM) above 45.8 µM.
Regarding `O=C(OCC(O)CO)c1ccccc1Nc1ccnc2c(C(F)(F)F)cccc12` (centres undefined) [Floctafenine], the IC50 cell viability was above 45.8 µM (ICRF193 0 nM) and above 45.8 µM (ICRF193 200 nM).
With `c1ccc2sc(SSc3nc4ccccc4s3)nc2c1` [2,2'-Dithiobisbenzothiazole], the IC50 cell viability by setting is: (ICRF193 0 nM) above 45.8 µM; (ICRF193 200 nM) above 45.8 µM.
`CN1[C@@H]2CC[C@H]1C[C@@H](OC(=O)c1c[nH]c3ccccc13)C2` [Tropisetron]: the IC50 cell viability was above 45.8 µM (ICRF193 0 nM) and above 45.8 µM (ICRF193 200 nM).
Turning to `N=C(N)NCCC[C@@H](N)C(=O)N[C@@H](CCCNC(=N)N)C(=O)N1CCC[C@H]1C(=O)N1C[C@H](O)C[C@H]1C(=O)NCC(=O)N[C@@H](Cc1cccs1)C(=O)N[C@@H](CO)C(=O)N1Cc2ccccc2C[C@@H]1C(=O)N1[C@H](C(=O)N[C@@H](CCCNC(=N)N)C(=O)O)C[C@@H]2CCCC[C@@H]21` [Icatibant], the IC50 cell viability is above 45.8 µM (ICRF193 0 nM) and above 45.8 µM (ICRF193 200 nM).
Consider `C1N2CN3CN1CN(C2)C3` [Methenamine], for which the IC50 cell viability was above 45.8 µM (ICRF193 0 nM) and above 45.8 µM (ICRF193 200 nM).
In the case of `NCC(=O)CCC(=O)O` [Aminolevulinic acid hydrochloride], the IC50 cell viability is, setting by setting: (ICRF193 0 nM) above 45.8 µM; (ICRF193 200 nM) above 45.8 µM.
`COCCCOc1ccnc(C[S+]([O-])c2nc3ccccc3[nH]2)c1C` (centres undefined) [Rabeprazole]: the IC50 cell viability runs as follows: (ICRF193 0 nM) above 45.8 µM; (ICRF193 200 nM) above 45.8 µM.
Turning to `Cc1nccn1CCC(C(N)=O)(c1ccccc1)c1ccccc1` [Imidafenacin], the IC50 cell viability (ICRF193 0 nM) is above 45.8 µM and the IC50 cell viability (ICRF193 200 nM) is above 45.8 µM.
With `NC[C@H]1O[C@H](O[C@H]2[C@H](O)[C@@H](O[C@H]3O[C@H](CO)[C@@H](O)[C@H](N)[C@H]3O)[C@H](N)C[C@@H]2N)[C@H](N)C[C@@H]1O` [Tobramycin], the IC50 cell viability is above 45.8 µM (ICRF193 0 nM) and above 45.8 µM (ICRF193 200 nM).
As to `O=C(NN1CCCC1)NS(=O)(=O)c1ccc(Cl)cc1` [Glyclopyramide], the IC50 cell viability by setting is: (ICRF193 0 nM) above 45.8 µM; (ICRF193 200 nM) above 45.8 µM.
In the case of `Cc1ccc(C(=O)Oc2ccc(C(O)CNC(C)(C)C)cc2OC(=O)c2ccc(C)cc2)cc1` (centres undefined) [Bitolterol], the IC50 cell viability is above 45.8 µM (ICRF193 0 nM) and above 45.8 µM (ICRF193 200 nM).
`C#C[C@]1(O)CC[C@H]2[C@@H]3CCC4=CCCC[C@@H]4[C@H]3C(=C)C[C@@]21CC` [Desogestrel]: the IC50 cell viability (ICRF193 0 nM) was above 45.8 µM and the IC50 cell viability (ICRF193 200 nM) is above 45.8 µM.
For `O=c1oc2c(O)c(O)cc3c(=O)oc4c(O)c(O)cc1c4c23` [Ellagic acid], the IC50 cell viability by setting is: (ICRF193 0 nM) above 45.8 µM; (ICRF193 200 nM) above 45.8 µM.
For `Cc1nnc2n1-c1sc(CCC(=O)N3CCOCC3)cc1C(c1ccccc1Cl)=NC2` [Apafant], the IC50 cell viability was above 45.8 µM (ICRF193 0 nM) and above 45.8 µM (ICRF193 200 nM).
As to `CNC(C)C(O)c1ccc(O)cc1` (centres undefined), the IC50 cell viability was above 45.8 µM (ICRF193 0 nM) and above 45.8 µM (ICRF193 200 nM).
Molecule `CN1CCC(=C2c3ccccc3CCc3sccc32)CC1` [Pizotifen] gave an IC50 cell viability (ICRF193 0 nM) above 45.8 µM and an IC50 cell viability (ICRF193 200 nM) above 45.8 µM.
Consider `CC(=O)OCC(=O)[C@@]1(O)[C@H](C)C[C@H]2[C@@H]3C[C@H](F)C4=CC(=O)C=C[C@]4(C)[C@H]3[C@@H](O)C[C@@]21C` [Paramethasone acetate], for which the IC50 cell viability runs as follows: (ICRF193 0 nM) above 45.8 µM; (ICRF193 200 nM) above 45.8 µM.
For `COc1ccc(-n2nc(C(N)=O)c3c2C(=O)N(c2ccc(N4CCCCC4=O)cc2)CC3)cc1` [Apixaban], the IC50 cell viability runs as follows: (ICRF193 0 nM) above 45.8 µM; (ICRF193 200 nM) above 45.8 µM.
`CN1CCC(=C2c3ccccc3CCc3cccnc32)CC1` [Azatadine]: the IC50 cell viability (ICRF193 0 nM) was above 45.8 µM and the IC50 cell viability (ICRF193 200 nM) was above 45.8 µM.
Take `COc1cc(NS(=O)(=O)c2ccc(N)cc2)nc(OC)n1` [Sulfadimethoxine]: the IC50 cell viability is above 45.8 µM (ICRF193 0 nM) and above 45.8 µM (ICRF193 200 nM).
`CCCCCCCCCCCCCC(=O)OCC(COP(=O)([O-])OCC[N+](C)(C)C)OC(=O)CCCCCCCCCCCCC` (racemic) [1,2-Ditetradecanoyl-rac-glycerol-3-phosphocholine] gave an IC50 cell viability (ICRF193 0 nM) above 45.8 µM and an IC50 cell viability (ICRF193 200 nM) above 45.8 µM.
For `CC(=O)OCC(=O)[C@@]1(O)CC[C@H]2[C@@H]3C[C@H](C)C4=CC(=O)C=C[C@]4(C)[C@H]3[C@@H](O)C[C@@]21C` [Methylprednisolone acetate], the IC50 cell viability is, setting by setting: (ICRF193 0 nM) above 45.8 µM; (ICRF193 200 nM) above 45.8 µM.
With `C#CCN(C)Cc1ccccc1` [Pargyline hydrochloride], the IC50 cell viability reads like this: (ICRF193 0 nM) above 45.8 µM; (ICRF193 200 nM) above 45.8 µM.
For `CCCC(CCC)C(=O)O` [Valproic acid sodium salt], the IC50 cell viability by setting is: (ICRF193 0 nM) above 45.8 µM; (ICRF193 200 nM) above 45.8 µM.
As for `COc1ccc(CN(C(=O)[C@@H](N)Cc2c(C)cc(C(N)=O)cc2C)[C@@H](C)c2ncc(-c3ccccc3)[nH]2)cc1C(=O)O` [Eluxadoline], the IC50 cell viability is above 45.8 µM (ICRF193 0 nM) and above 45.8 µM (ICRF193 200 nM).
